Experimental data as given in paper PMC2788660 (Journal of medicinal chemistry, 2009).
One block for each compound: values may come before it. Square brackets hold non-standard residues; d marks the D form. Peptide text beside a SMILES is read from it. * marks the point of attachment. 1Nal = N[C@@H](Cc1cccc2ccccc12)C(=O)O; Asu = N[C@@H](CCCCCC(=O)O)C(=O)O; β3hL = CC(C)C[C@H](N)CC(=O)O; CH2CH2COOH = O=C(O)CC*

Tests used:
[1] = molecular target: T1, HDAC6 (Homo sapiens, UniProt Q9UBN7)
T1 sequence (Q9UBN7 1-1215): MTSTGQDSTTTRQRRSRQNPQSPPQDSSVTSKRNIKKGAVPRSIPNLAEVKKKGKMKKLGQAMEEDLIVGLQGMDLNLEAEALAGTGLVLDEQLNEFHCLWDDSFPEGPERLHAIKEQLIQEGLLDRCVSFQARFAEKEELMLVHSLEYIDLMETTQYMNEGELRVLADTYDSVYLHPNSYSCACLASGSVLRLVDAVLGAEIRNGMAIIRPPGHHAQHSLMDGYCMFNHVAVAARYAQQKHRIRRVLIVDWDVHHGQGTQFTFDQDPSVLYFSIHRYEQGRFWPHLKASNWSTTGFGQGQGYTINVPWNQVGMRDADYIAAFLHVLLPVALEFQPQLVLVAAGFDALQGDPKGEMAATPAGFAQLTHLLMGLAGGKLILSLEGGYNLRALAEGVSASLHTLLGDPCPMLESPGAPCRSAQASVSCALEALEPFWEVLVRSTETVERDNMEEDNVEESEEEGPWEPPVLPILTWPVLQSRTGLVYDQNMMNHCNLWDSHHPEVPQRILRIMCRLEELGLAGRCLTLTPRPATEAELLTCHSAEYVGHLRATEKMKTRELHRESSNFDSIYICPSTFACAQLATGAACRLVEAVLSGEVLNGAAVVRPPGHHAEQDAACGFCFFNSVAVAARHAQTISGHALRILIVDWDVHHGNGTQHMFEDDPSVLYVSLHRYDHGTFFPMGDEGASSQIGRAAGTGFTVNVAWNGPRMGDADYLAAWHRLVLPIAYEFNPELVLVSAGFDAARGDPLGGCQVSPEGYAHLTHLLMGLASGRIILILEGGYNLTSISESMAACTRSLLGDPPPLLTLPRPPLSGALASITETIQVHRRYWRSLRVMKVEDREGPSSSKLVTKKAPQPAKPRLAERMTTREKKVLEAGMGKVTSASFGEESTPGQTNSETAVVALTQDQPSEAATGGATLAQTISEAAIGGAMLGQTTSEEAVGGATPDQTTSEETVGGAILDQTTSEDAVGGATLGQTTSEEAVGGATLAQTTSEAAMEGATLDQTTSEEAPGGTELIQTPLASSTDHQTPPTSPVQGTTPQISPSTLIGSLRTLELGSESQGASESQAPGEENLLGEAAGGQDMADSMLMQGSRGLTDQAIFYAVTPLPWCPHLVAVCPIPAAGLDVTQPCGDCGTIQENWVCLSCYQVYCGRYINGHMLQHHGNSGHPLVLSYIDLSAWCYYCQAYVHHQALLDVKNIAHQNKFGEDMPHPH

[2] = molecular target: T2, HDAC8 (Homo sapiens, UniProt Q9BY41); details: relative to 3a
T2 sequence (Q9BY41 1-377): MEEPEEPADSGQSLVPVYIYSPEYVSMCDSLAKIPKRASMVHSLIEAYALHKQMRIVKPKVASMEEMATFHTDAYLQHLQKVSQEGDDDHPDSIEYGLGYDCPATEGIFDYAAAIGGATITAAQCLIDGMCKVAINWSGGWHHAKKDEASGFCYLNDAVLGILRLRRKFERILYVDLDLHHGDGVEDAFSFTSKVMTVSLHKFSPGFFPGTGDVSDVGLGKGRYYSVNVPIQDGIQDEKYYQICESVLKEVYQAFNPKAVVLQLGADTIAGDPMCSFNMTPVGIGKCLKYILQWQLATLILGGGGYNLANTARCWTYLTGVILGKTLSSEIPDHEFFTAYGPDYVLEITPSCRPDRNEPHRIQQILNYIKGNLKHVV

[3] = molecular target: HDAC1 (Homo sapiens, UniProt Q13547); details: relative to 3a
Chain of HDAC1 (Q13547 whole entry): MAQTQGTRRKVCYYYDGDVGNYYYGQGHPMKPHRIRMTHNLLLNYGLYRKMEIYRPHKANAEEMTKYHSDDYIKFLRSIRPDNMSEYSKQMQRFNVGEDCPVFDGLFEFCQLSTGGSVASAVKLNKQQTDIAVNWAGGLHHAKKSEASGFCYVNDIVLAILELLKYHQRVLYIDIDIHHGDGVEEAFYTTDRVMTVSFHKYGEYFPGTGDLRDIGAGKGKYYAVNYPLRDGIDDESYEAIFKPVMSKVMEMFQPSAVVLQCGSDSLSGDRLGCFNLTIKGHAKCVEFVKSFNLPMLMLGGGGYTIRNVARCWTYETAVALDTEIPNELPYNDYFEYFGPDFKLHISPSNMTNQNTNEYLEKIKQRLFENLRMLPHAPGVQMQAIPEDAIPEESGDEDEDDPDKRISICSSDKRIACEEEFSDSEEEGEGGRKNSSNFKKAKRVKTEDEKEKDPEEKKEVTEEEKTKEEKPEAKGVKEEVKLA

SMILES: CCC(=O)CCCCC[C@@H]1NC(=O)[C@H]2CCCCN2C(=O)[C@H]([C@@H](C)CC)NC(=O)[C@H](Cc2cn(OC)c3ccccc23)NC1=O [1a, apicidin, reference compound]
- HDAC6 inhibition (in words) [1]: did not inhibit HDAC6 in the concentration range tested

- decrease in potency against HDAC8, 3a vs. 4c [2]: ~ 3 fold
- decrease in potency against HDAC1, 3a vs. 4c [3]: ~ 40 fold
SMILES: CC(C)C[C@H]1CC(=O)N[C@@H](C)C(=O)N[C@@H](CSCCC(=O)O)C(=O)N[C@@H](Cc2c[nH]c3ccccc23)C(=O)N1 [4c] (cyclo(C(CH2CH2COOH)W[β3hL]A); ring closure inferred)

SMILES: CC(C)C[C@H]1CC(=O)N[C@@H](CCCNC(=N)N)C(=O)N[C@@H](CCCCCC(=O)O)C(=O)N[C@@H](Cc2cccc3ccccc23)C(=O)N1 [compound 17, c[Asu-Nal-β^3Leu-Arg]] (cyclo([Asu][1Nal][β3hL]R); ring closure inferred)
- fold more potent against HDAC6 compared to Ala–aa4 analog (8b) [1]: 3–4 fold
